Tests used:
Assay in all cases: Growth experiment, coated vs uncoated seeds planted in soil
[1] = test system: soybeans; assay type: in vivo, soybean
Description: (§1) Groups of coated and uncoated soybeans, corn, sunflower, and turfgrass were planted in soil and monitored for germination.

[2] = test system: corn; assay type: in vivo
Description: as §1

[3] = test system: sunflower; assay type: in vivo
Description: as §1

- germination time of coated seeds ([1]; soybean seeds coated with DMSO and curcumin, planted in soil, same as uncoated): 2 days
- height and diameter, coated vs uncoated ([1]; soybean, after 3 weeks): equal height and diameter
- germination time of coated seeds ([2]; corn seeds coated with DMSO and curcumin, planted in soil, same as uncoated): 2 days
- height and diameter, coated vs uncoated ([2]; corn, after 3 weeks): equal height and diameter
- germination time of coated seeds ([3]; sunflower seeds coated with DMSO and curcumin, planted in soil, same as uncoated): 2 days
- height and diameter, coated vs uncoated ([3]; sunflower, after 3 weeks): equal height and diameter
Structure (SMILES): COc1cc(/C=C/C(=O)CC(=O)/C=C/c2ccc(O)c(OC)c2)ccc1O [curcumin, Curcumin]
